Test results from US20240050522A1, “COMPOSITIONS AND METHODS FOR PREVENTING, ATTENUATING, AND TREATING MEDICAL CONDITIONS WITH sHDL NANOPARTICLES” (The Regents of the University of Michigan, priority 2020, published 2024).

Legend:
[1] = phospholipid alone, not complexed with 22A; cited from earlier work
[2] = test system: NF-κB reporter, human TLR4 (HEK-Blue cells); assay: LPS-induced NF-κB expression in HEK-Blue cells (Example X); type: cell-based; conditions: 0.1 mg/ml, LPS 2 ng/ml, 18 h
Method: FIG. 29A-I: sHDL complexes inhibit LPS-induced NF-κB activation in a lipid component and concentration dependent. HEK-Blue system was used to analyze neutralization of the LPS-induced inflammatory response. HEK-Blue cells were co-stimulated with 0.01, 0.03, and 0.1 mg/ml sHDL and 2 ng/ml LPS and incubated for 18 h. The activation of NF-κB reporter was quantified by measuring absorption at 650 nm (A-H). sHDL at 0.03 mg/ml were treated in presence of 2 ng/ml LPS and the activation of NF-κB reporter was quantified by measuring absorption at 650 nm (I).
The HEK-Blue cell system (InvivoGen) was used to analyze neutralization of the LPS-induced inflammatory response. HEK-Blue cells stably express reporter-linked human TLR4, CD14, MD2, and a NF-κB and are designed for studying the stimulation of human TLR4. Briefly, HEK-Blue cells were cultured in Dulbecco's Modified Eagle's Medium (DMEM) containing 10% low endotoxin fetal bovine serum (FBS) and selective antibiotics according to the manufacturer's instructions (InvivoGen). Growth medium was discarded and cells were resuspended in HEK-Blue Detection medium. Cells were seeded at 25,000 cells per well. The cells were treated with sHDL at 0.01, 0.03, or 0.1 mg/ml and 2 ng/ml of LPS. […] The blue color was quantified by measuring absorption at 650 nm using a SpectraMax M3 plate reader (Molecular Devices, Sunnyvale, CA).

[3] = Diameter of 22A-phospholipid sHDL complexes by DLS; type: physicochemical; conditions: volume intensity average
Method: The quality of resulting sHDL complexes were analyzed by following analytical techniques. The purity of sHDL complexes were determined by gel permeation chromatography (GPC), with UV detection at 220 nm, using a Tosoh TSK gel G3000SWxl column (Tosoh Bioscience, King of Prussia, PA). The sHDL diameters were determined by dynamic light scattering (DLS), using a Zetasizer Nano ZSP (Malvern Instruments, Westborough, MA) and the volume intensity average values were reported. Transition temperature of sHDL complexes were analyzed by differential scanning calorimetry (DSC) using Nano DSC (TA Instruments, New Castle, DE).

[4] = test system: endotoxemia mice (5 mg/kg LPS); conditions: 100 mg/kg; cited from earlier work
endotoxemia rats = conditions: cited from earlier work
SARS-CoV = conditions: via reduced or relocated ACE-2 receptors; cited from earlier work

With `CCCCCCCCCCCCCC(=O)OC[C@H](COP(=O)([O-])OCC[N+](C)(C)C)OC(=O)CCCCCCCCCCCCC` [DMPC, 1,2-dimyristoyl-sn-glycero-3-phosphatidylcholine] as the compound, how does the Tm of phospholipid [1] read?
The Tm of phospholipid was 24.5 °C.

With `CCCCCCCCCCCCCCCC(=O)OC[C@H](COP(=O)([O-])OCC[N+](C)(C)C)OC(=O)CCCCCCCCCCCCCCC` [DPPC, 1,2-dipalmitoyl-sn-glycero-3-phosphatidylcholine] as the compound, how does the Tm of phospholipid [1] read?
The Tm of phospholipid was 41.6 °C.

For `CCCCCCCCCCCCCCCCCC(=O)OC[C@H](COP(=O)([O-])OCC[N+](C)(C)C)OC(=O)CCCCCCCCCCCCCCCCC` [DSPC, 1,2-distearoyl-sn-glycero-3-phosphatidylcholine], which Tm of phospholipid [1] is on record?
The Tm of phospholipid was 54.5 °C.

For `CCCCCCCC/C=C\CCCCCCCC(=O)O[C@H](COC(=O)CCCCCCCCCCCCCCC)COP(=O)([O-])OCC[N+](C)(C)C` [POPC, 1-palmitoyl-2-oleoyl-phosphatidylcholine], which Tm of phospholipid [1] is on record?
The Tm of phospholipid was −3.3±0.5 °C.

Which “activation of NF-kB” value [2] does the source give for “PVLDLFRELLNELLEALKQKLK (SEQ ID NO: 4) [22A peptide]” here?
Its value is “suppressed”.

And the “Size (nm)” value [3]?
Its value is 4.49 nm.

What about the “Size (nm)” value ([3]; listed as 22A PEPTIDE) of the same compound?
Its value is 4.488 nm.

What does the source list for apoA-I: apolipoprotein A-I?
mortality [4]: significantly lowered; plasma TNF-α (endotoxemia rats; 10 mg/kg 2 h post-LPS injection (1 mg/kg LPS)): reduce; survival rate (endotoxemia rats; 10 mg/kg, endotoxemia rats (5 mg/kg)): increased

With methyl-β-cyclodextrin [MβCD] as the compound, how does the SARS-CoV cell entry (SARS-CoV) read?
Its SARS-CoV cell entry is “inhibited”.
